From patent US20090233796A1, “HERBICIDAL COMPOSITION” (SYNGENTA CROP PROTECTION, INC., priority 2004, published 2009)

Assays:
Type in all cases: in vivo
Ipomoea = test: Compound (A) with primisulfuron, weed plots; settings: 44 DAA, Trial 3.21
Procedure: In these tests, various weeds were treated with primisulfuron alone at a rate equivalent to 35 g per hectare, […] and Compound (A) at rates equivalent to the sum of these. The compositions were formulated as an emulsifiable concentrate (EC).
(§1) The results in the tables under each application are the percentage of the plants that were killed.

DIGITARIA SANGUINALIS = test: Compound (A) with nicosulfuron, weed plots
Procedure: (§2) In these tests, various weeds were treated with nicosulfuron alone at a rate equivalent to 35 g per hectare, […] and Compound (A) at rates equivalent to the sum of these. The compositions were formulated as an emulsifyable concentrate (EC).
(§3) The results in the table under each application are the percentage of the plants that were killed.

SETARIA VIRIDIS = test: Compound (A) with nicosulfuron, weed plots; settings: 4 DAA, No. 3.11
Procedure: as §2, §3

BRACHIARIA PLATYPHYLLA = test: Compound (A) with nicosulfuron, weed plots
Procedure: as §2, §3

SESBANIA EXALTATA = test: Compound (A) with nicosulfuron, weed plots
Procedure: as §2, §3

SETARIA SP. = test: Compound (A) with nicosulfuron, weed plots; settings: 21 DAA, No. 3.4
Procedure: as §2, §3

ABUTILON THEOPHRASTI [1] = test: Compound (A) with nicosulfuron, weed plots; settings: 27 DAA, No. 3.13
Procedure: as §2, §3

AMBROSIA TRIFIDA = test: Compound (A) with nicosulfuron, weed plots; settings: 28 DAA, No. 3.15
Procedure: as §2, §3

[…] = Compound (A) with nicosulfuron, weed plots; settings: 58 DAA, No. 3.12
Procedure: as §2, §3

CYPERUS ESCULENTUS = test: Compound (A) with nicosulfuron, weed plots
Procedure: as §2, §3

C[…]. = test: Compound (A) with nicosulfuron, weed plots; settings: 5 DAA, No. 3.8
Procedure: as §2, §3

IPOMOEA SP. = test: Compound (A) with nicosulfuron, weed plots; settings: 5 DAA, No. 3.10
Procedure: as §2, §3

Cyperus = test: Compound (A) with sulcotrione, weed plots; settings: 14 DAA, Trial 5.1
Procedure: In these tests, various weeds were treated with sulcotrione alone at an application rate equivalent to 1420 g per hectare, […] and Compound (A) at rates equivalent to the sum of these. The compositions were formulated as an emulsifyable concentrate (EC).
as §3

ABUTILON THEOPHRASTI [2] = test: Compound (A) with S-metolachlor, weed plots
From the text: […] The compositions were formulated as an emulsifyable concentrate (EC).
as §3

Veronica = test: Compound (A) with prosulfuron, weed plots; settings: 13 DAA, No. 3.25
Procedure: (§4) In these tests, various weeds were treated with prosulfinuron alone at a rate equivalent to 35 g per hectare, […] and Compound (A) at rates equivalent to the sum of these. The compositions were formulated as an emulsifiable concentrate (EC).
as §1

Wheat = test: Compound (A) with prosulfuron, weed plots; settings: 13 DAA, No. 3.30
Procedure: as §4, §1

Rice = test: Compound (A) with prosulfuron, weed plots; settings: 13 DAA, No. 3.29
Procedure: as §4, §1

Brachiaria = test: Compound (A) with prosulfuron, weed plots; settings: 13 DAA, No. 3.27
Procedure: as §4, §1

Euphorbia = test: Compound (A) with prosulfuron, weed plots; settings: 13 DAA, No. 3.28
Procedure: as §4, §1

Measured: percentage of the plants that were killed

CCOC(=O)COc1ncccc1Oc1cc(-n2c(=O)cc(C(F)(F)F)n(C)c2=O)c(F)cc1Cl [Compound (A)]
35%: ABUTILON THEOPHRASTI [2]; 20 g/ha, 38 DAA, Trial 4.4
30%: CYPERUS ESCULENTUS; 20 g/ha, 12 DAA, No. 3.9 | C[…].; 10 g/ha | IPOMOEA SP.; 5 g/ha
43%: ABUTILON THEOPHRASTI [2]; 20 g/ha, 23 DAA, Trial 4.3
98%: DIGITARIA SANGUINALIS; 20 g/ha, 4 DAA, No. 3.6 | ABUTILON THEOPHRASTI [1]; 10 g/ha | Brachiaria; 5 g/ha
25%: DIGITARIA SANGUINALIS; 5 g/ha, 5 DAA, No. 3.14 | ABUTILON THEOPHRASTI [2]; 20 g/ha, 15 DAA, Trial 4.12
95%: C[…].; 20 g/ha | IPOMOEA SP.; 20 g/ha | Wheat; 2.5 g/ha
50%: DIGITARIA SANGUINALIS; 5 g/ha, 21 DAA, No. 3.5 | DIGITARIA SANGUINALIS; 10 g/ha, 5 DAA, No. 3.14 | SETARIA SP.; 5 g/ha | AMBROSIA TRIFIDA; 5 g/ha | AMBROSIA TRIFIDA; 10 g/ha | […]; 5 g/ha | Cyperus; 1.25 g/ha | Cyperus; 5 g/ha | Rice; 1.25 g/ha | Brachiaria; 1.25 g/ha | Euphorbia; 1.25 g/ha
85%: SETARIA VIRIDIS; 20 g/ha | SESBANIA EXALTATA; 10 g/ha, 44 DAA, No. 3.3 | SESBANIA EXALTATA; 10 g/ha, 45 DAA, No. 3.2
97%: […]; 20 g/ha
90%: DIGITARIA SANGUINALIS; 10 g/ha, 4 DAA, No. 3.6 | SESBANIA EXALTATA; 20 g/ha, 44 DAA, No. 3.3 | SESBANIA EXALTATA; 20 g/ha, 45 DAA, No. 3.2 | Rice; 5 g/ha
60%: AMBROSIA TRIFIDA; 20 g/ha | CYPERUS ESCULENTUS; 10 g/ha, 7 DAA, No. 3.7 | CYPERUS ESCULENTUS; 20 g/ha, 7 DAA, No. 3.7 | Brachiaria; 2.5 g/ha
78%: ABUTILON THEOPHRASTI [2]; 40 g/ha, 23 DAA, Trial 4.3
75%: SESBANIA EXALTATA; 5 g/ha, 44 DAA, No. 3.3
80%: Ipomoea; 1.25 g/ha | DIGITARIA SANGUINALIS; 10 g/ha, 21 DAA, No. 3.5 | SETARIA SP.; 10 g/ha | IPOMOEA SP.; 10 g/ha | Veronica; 1.25 g/ha | Wheat; 1.25 g/ha
13%: ABUTILON THEOPHRASTI [2]; 40 g/ha, 56 DAA, Trial 4.13
93%: DIGITARIA SANGUINALIS; 20 g/ha, 21 DAA, No. 3.5 | SETARIA SP.; 20 g/ha
70%: SETARIA VIRIDIS; 10 g/ha | […]; 10 g/ha | ABUTILON THEOPHRASTI [2]; 40 g/ha, 38 DAA, Trial 4.4 | Rice; 2.5 g/ha | Euphorbia; 2.5 g/ha | Euphorbia; 5 g/ha
99%: DIGITARIA SANGUINALIS; 20 g/ha, 5 DAA, No. 3.14 | ABUTILON THEOPHRASTI [1]; 20 g/ha
20%: DIGITARIA SANGUINALIS; 5 g/ha, 4 DAA, No. 3.6 | C[…].; 5 g/ha
65%: SESBANIA EXALTATA; 5 g/ha, 45 DAA, No. 3.2
40%: SETARIA VIRIDIS; 5 g/ha | CYPERUS ESCULENTUS; 5 g/ha, 7 DAA, No. 3.7
0%: BRACHIARIA PLATYPHYLLA; 5 g/ha, 24 DAA, No. 3.16 | BRACHIARIA PLATYPHYLLA; 5 g/ha, 30 DAA, No. 3.17 | BRACHIARIA PLATYPHYLLA; 10 g/ha, 24 DAA, No. 3.16 | BRACHIARIA PLATYPHYLLA; 10 g/ha, 30 DAA, No. 3.17 | BRACHIARIA PLATYPHYLLA; 20 g/ha, 24 DAA, No. 3.16 | BRACHIARIA PLATYPHYLLA; 20 g/ha, 30 DAA, No. 3.17 | ABUTILON THEOPHRASTI [1]; 5 g/ha | CYPERUS ESCULENTUS; 5 g/ha, 12 DAA, No. 3.9 | CYPERUS ESCULENTUS; 10 g/ha, 12 DAA, No. 3.9 | ABUTILON THEOPHRASTI [2]; 20 g/ha, 56 DAA, Trial 4.13
88%: ABUTILON THEOPHRASTI [2]; 40 g/ha, 15 DAA, Trial 4.12
100%: Ipomoea; 2.5 g/ha | Ipomoea; 5 g/ha | Veronica; 2.5 g/ha | Veronica; 5 g/ha | Wheat; 5 g/ha
